Measurements from ChEMBL document CHEMBL5214963, “Development of a penetratin-conjugated stapled peptide that inhibits Wnt/β-catenin signaling” (Bioorg Med Chem, 2022).
Activity calls are given as the source filed them. The rule behind the calls is not given here. *1 amine or outer side, *2 acyl side, *3 side chain or, on linkers, in order; H or OH if unused. Where a SMILES comes first, the peptide text is derived from it. Bridges are numbered along the chain shown (N, C = ends). [ ]: non-standard residue; d: D form. Nle(6-ylidene) = O=C([C@H](CCCC=[*:3])N[*:1])[*:2]; Nle = CCCC[C@H](N)C(=O)O; βAla = NCCC(=O)O

Key:
HEK293 [1] = assay: (§1) Inhibition of Wnt/beta-catenin transactivation signalling in Wnt3a stimulated human HEK293 cells harbouring TCF/LEF luciferase reporter gene assessed as inhibition TCF-beta-catenin complex formation by measuring luminescence level at 50 uM preincubated for 15 hrs followed by recombinant mouse Wnt-3a addition and measured after 5 hrs by luminescence based microplate reader analysis; assay type: cell-based; settings: time 20.0 hrs
[2] = Stability of the compound in proteinase K (unknown origin) assessed as remaining parent compound at 100 uM measured after 480 mins by HPLC analysis; assay type: ADME; settings: read-out: Stability
A549 [3] = assay: Cytotoxicity against human A549 cells assessed as cell growth inhibition at 20 uM incubated for 5 days by CellTiter-Glo reagent based microplate reader analysis; assay type: functional; settings: time 5.0 day
DLD-1 [4] = assay: Cytotoxicity against human DLD-1 cells assessed as cell growth inhibition at 20 uM incubated for 5 days by CellTiter-Glo reagent based microplate reader analysis; assay type: functional; settings: time 5.0 day
HEK293 [5] = assay: as §1, with “20” for “50”; assay type: cell-based; settings: time 20.0 hrs
HEK293 [6] = assay: as §1, with “0.1 to 20” for “50”; assay type: cell-based; settings: dose 0.1-20 µM, time 20.0 hrs, DDE = dose-dependent effect
DLD-1 [7] = assay: Cytotoxicity against human DLD-1 cells assessed as reduction in cell growth at 20 uM incubated for 24 hrs by CellTiter-Glo reagent based microplate reader analysis; assay type: functional
A549 [8] = assay: Cytotoxicity against human A549 cells assessed as cell growth inhibition at 20 uM incubated for 24 hrs by CellTiter-Glo reagent based microplate reader analysis; assay type: functional

SMILES: O=C(Nc1cccc2cccnc12)c1ccc(N2C(=O)[C@@H]3[C@H](C2=O)[C@@H]2C=C[C@H]3C2)cc1
- inhibition (HEK293 [1]): Active

SMILES: CCCC[C@H](NC(=O)[C@@H]1CCC/C=C\CCC[C@H](NC(=O)[C@H](C)NC(=O)[C@H](C)NC(=O)CCN)C(=O)N[C@@H](CC(C)C)C(=O)N[C@@H](CC(=O)O)C(=O)N[C@@H](Cc2ccc(O)cc2)C(=O)N1)C(=O)N[C@@H](CS)C(=O)N[C@@H](CC(N)=O)C(=O)N[C@@H](Cc1ccc(O)cc1)C(=O)O (H-[βAla]AA[Nle(6-ylidene)]LDY[Nle(6-ylidene)][Nle]CNY-OH; staple (Z) 4-8)
- remaining at 8 h, 100 µM [2]: 65%

SMILES: CC[C@H](C)[C@@H]1NC(=O)[C@@H](NC(=O)[C@H](CCCNC(=N)N)NC(=O)[C@@H]2CCCN2C(=O)[C@H](Cc2c[nH]c3ccccc23)NC(=O)[C@H](CCCNC(=N)N)NC(=O)[C@H](CCCNC(=N)N)NC(C)=O)CCC/C=C\CCC[C@@H](C(=O)N[C@@H](Cc2cnc[nH]2)C(=O)N[C@H](C(=O)N[C@@H](CCCNC(=N)N)C(=O)N[C@@H](CCCNC(=N)N)C(=O)N[C@H](C(=O)N[C@@H](Cc2c[nH]c3ccccc23)C(=O)N[C@@H](CCCNC(=N)N)C(=O)O)C(C)C)C(C)C)NC(=O)[C@H](CC(=O)O)NC(=O)[C@H](CC(C)C)NC1=O (Ac-RRWPR[Nle(6-ylidene)]ILD[Nle(6-ylidene)]HVRRVWR-OH; staple (Z) 6-10)
- Activity (A549 [3]): Active
- Activity (DLD-1 [4]): Active
- inhibition (HEK293 [5]): Active

SMILES: CCCC[C@H](NC(=O)[C@@H]1CCC/C=C\CCC[C@H](NC(=O)[C@H](C)NC(=O)[C@H](C)NC(=O)CCNC(=O)[C@H](CCCCN)NC(=O)[C@H](CCCCN)NC(=O)[C@H](Cc2c[nH]c3ccccc23)NC(=O)[C@H](CCCCN)NC(=O)[C@H](CCSC)NC(=O)[C@H](CCCNC(=N)N)NC(=O)[C@H](CCCNC(=N)N)NC(=O)[C@H](CC(N)=O)NC(=O)[C@H](CCC(N)=O)NC(=O)[C@H](Cc2ccccc2)NC(=O)[C@H](Cc2c[nH]c3ccccc23)NC(=O)[C@@H](NC(=O)[C@H](CCCCN)NC(=O)[C@@H](NC(=O)[C@H](CCC(N)=O)NC(=O)[C@@H](N)CCCNC(=N)N)[C@@H](C)CC)[C@@H](C)CC)C(=O)N[C@@H](CC(C)C)C(=O)N[C@@H](CC(=O)O)C(=O)N[C@@H](Cc2ccc(O)cc2)C(=O)N1)C(=O)N[C@@H](CS)C(=O)N[C@@H](CC(N)=O)C(=O)N[C@@H](Cc1ccc(O)cc1)C(=O)O
- Activity (A549 [3]): Active
- inhibition (HEK293 [6]): Dde
- Activity (DLD-1 [7]): Active
- Activity (DLD-1 [4]): Active
- Activity (A549 [8]): Active

SMILES: CC(C)C[C@H](NC(=O)[C@H](C)NC(=O)[C@H](C)NC(=O)CCN)C(=O)N[C@@H](CC(C)C)C(=O)N[C@@H](CC(=O)O)C(=O)N[C@@H](Cc1ccc(O)cc1)C(=O)N[C@H](C(=O)N[C@@H](CS)C(=O)N[C@@H](CC(N)=O)C(=O)N[C@@H](Cc1ccc(O)cc1)C(=O)O)[C@@H](C)O (H-[βAla]AALLDYTCNY-OH)
- remaining at 8 h, 100 µM [2]: 0.1%

SMILES: CCCC[C@H](NC(=O)[C@@H]1CCC/C=C\CCC[C@H](NC(=O)[C@H](C)NC(=O)[C@H](C)NC(=O)CCNC(=O)[C@H](CCCNC(=N)N)NC(=O)[C@H](CCCNC(=N)N)NC(=O)[C@H](CCCNC(=N)N)NC(=O)[C@H](CCCNC(=N)N)NC(=O)[C@H](CCCNC(=N)N)NC(=O)[C@H](CCCNC(=N)N)NC(=O)[C@H](CCCNC(=N)N)NC(=O)[C@@H](N)CCCNC(=N)N)C(=O)N[C@@H](CC(C)C)C(=O)N[C@@H](CC(=O)O)C(=O)N[C@@H](Cc2ccc(O)cc2)C(=O)N1)C(=O)N[C@@H](CS)C(=O)N[C@@H](CC(N)=O)C(=O)N[C@@H](Cc1ccc(O)cc1)C(=O)O
- Activity (DLD-1 [7]): Active
- Activity (A549 [8]): Active

SMILES: CCCC[C@H](NC(=O)[C@@H]1CCC/C=C\CCC[C@H](NC[C@H](C)NC(=O)[C@H](C)NC(=O)CCNC(=O)[C@H](CCC(N)=O)NC(=O)[C@@H]2CCCN2C(=O)[C@@H]2CCCN2C(=O)[C@H](CCCNC(=N)N)NC(=O)[C@H](CCCNC(=N)N)NC(=O)[C@H](CCCNC(=N)N)NC(=O)[C@H](CCC(N)=O)NC(=O)[C@H](CCCNC(=N)N)NC(=O)[C@H](CCCNC(=N)N)NC(=O)[C@H](CCCCN)NC(=O)[C@H](CCCCN)NC(=O)[C@H](CCCNC(=N)N)NC(=O)CN)C(=O)N[C@@H](CC(C)C)C(=O)N[C@@H](CC(=O)O)C(=O)N[C@@H](Cc2ccc(O)cc2)C(=O)N1)C(=O)N[C@@H](CS)C(=O)N[C@@H](CC(N)=O)C(=O)N[C@@H](Cc1ccc(O)cc1)C(=O)O
- Activity (DLD-1 [7]): Active
- Activity (A549 [8]): Active
